One assay deals with T1, ovine COX-2 (Ovis aries, UniProt P79208).
T1 construct: gene PTGS2
T1 sequence (P79208 17-603): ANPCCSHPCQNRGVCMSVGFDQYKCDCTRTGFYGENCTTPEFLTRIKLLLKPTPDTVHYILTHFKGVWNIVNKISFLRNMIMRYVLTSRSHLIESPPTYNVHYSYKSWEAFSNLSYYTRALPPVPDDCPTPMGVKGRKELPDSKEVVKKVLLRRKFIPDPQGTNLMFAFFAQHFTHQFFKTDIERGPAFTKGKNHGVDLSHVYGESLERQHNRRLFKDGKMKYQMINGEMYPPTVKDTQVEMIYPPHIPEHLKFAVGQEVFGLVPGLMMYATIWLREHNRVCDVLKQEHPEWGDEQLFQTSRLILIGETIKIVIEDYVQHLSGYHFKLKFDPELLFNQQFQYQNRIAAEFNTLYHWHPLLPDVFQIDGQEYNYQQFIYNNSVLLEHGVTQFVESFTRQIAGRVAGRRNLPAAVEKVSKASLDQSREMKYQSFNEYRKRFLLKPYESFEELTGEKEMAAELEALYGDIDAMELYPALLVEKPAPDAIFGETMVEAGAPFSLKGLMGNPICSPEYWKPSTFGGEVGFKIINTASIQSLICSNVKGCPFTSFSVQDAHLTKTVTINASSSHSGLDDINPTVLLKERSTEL
The assay is described as follows: colorimetric peroxidase assay, TMPD oxidation at […] nm (Cayman kit). The format is biochemical. The settings on record: read-out: IC50 (μM) vs. COX / COX-1.

The next assay addresses T2, ovine COX-1 (Ovis aries, UniProt P05979).
T2 construct: gene PTGS1
T2 sequence (P05979 25-600): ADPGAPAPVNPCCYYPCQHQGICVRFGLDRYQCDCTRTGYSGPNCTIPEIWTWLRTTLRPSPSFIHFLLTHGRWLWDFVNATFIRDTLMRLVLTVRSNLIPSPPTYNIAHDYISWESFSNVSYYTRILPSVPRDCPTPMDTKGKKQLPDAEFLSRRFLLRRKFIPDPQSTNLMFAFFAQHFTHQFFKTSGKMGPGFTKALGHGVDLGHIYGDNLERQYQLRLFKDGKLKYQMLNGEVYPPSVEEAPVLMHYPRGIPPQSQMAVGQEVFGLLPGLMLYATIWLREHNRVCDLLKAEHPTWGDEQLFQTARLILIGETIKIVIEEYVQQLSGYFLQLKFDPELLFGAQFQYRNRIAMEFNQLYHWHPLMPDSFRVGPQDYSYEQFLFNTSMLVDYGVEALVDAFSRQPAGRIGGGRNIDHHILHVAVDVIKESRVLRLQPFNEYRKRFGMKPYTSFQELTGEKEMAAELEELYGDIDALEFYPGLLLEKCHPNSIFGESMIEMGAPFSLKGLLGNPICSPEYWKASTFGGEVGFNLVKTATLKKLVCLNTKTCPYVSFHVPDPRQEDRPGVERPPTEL
The description is as above. The format is biochemical.

For `COc1ccc2cc1Oc1ccc(cc1)C[C@H]1c3cc(c(OC)cc3CCN1C)Oc1c(OC)c(OC)cc3c1[C@H](C2)N(C)CC3` [compound 1, (+)-tetrandrine], the IC50 on ovine COX-2 and on ovine COX-1 was greater than 100 µM in each case.

Source of the values: paper PMC7999448, “Antibacterial and COX-2 Inhibitory Tetrahydrobisbenzylisoquinoline Alkaloids from the Philippine Medicinal Plant Phaeanthus ophthalmicus” (Plants, 2021).
